# Reference: patent US20120196927A1, “PROPHYLACTIC AND/OR THERAPEUTIC AGENT FOR METABOLIC SYNDROME” (priority 2009, published 2012)
# How the values were obtained:
# C57BL/6J-ob/ob mice [1] = assay: Diabetes model mice: fasting blood glucose level; type: in vivo, mouse; conditions: nobiletin 200 mg/kg/day, Pioglitazone 30 mg/kg/day p.o.
# Description: Two weeks or 5 weeks from the beginning of the administration, the fasting blood glucose was measured (n=10). The measurement of the blood glucose level was carried out as the same as that of the example 1.
# C57BL/6J-ob/ob mice [2] = assay: Diabetes model mice: oral glucose tolerance test (OGTT); type: in vivo, mouse; conditions: nobiletin 200 mg/kg/day, Pioglitazone 30 mg/kg/day
# Description: The oral glucose tolerance test (OGTT) for the diabetes model mice (ob/ob) to which the nobiletin and others were administrated was subjected to the glucose tolerance test for studying the effects.
# From 4 weeks after the start of the administration, the mice in each group were fasted for 16 hours, and then they were administrated 2 g/kg body weight of glucose per os. After the administration of glucose, […] of blood was collected from the tail vein at the time point of 0, 30, 60 and 120 minutes. Collected blood was centrifuged at 4° C., 3,000×g, for 15 minute to obtain plasma (n=10). The blood glucose level was measured as the same as that described in the example 1.
# [3] = test system: GLUT4, Adiponectin, TNF-α, MCP-1, IL-6, PPARγ, aP2, LPL, Perilipin genes; assay: Diabetes model mice: mRNA expression in the white adipose tissue (real time RT-PCR); type: in vivo, mouse; conditions: ob/ob mice, Vehicle = 1.00, nobiletin 200 mg/kg/day, Pioglitazone 30 mg/kg/day, 5 weeks
# Description: (§1) The effects by nobiletin ingestion to the mRNA expression in the white adipose tissue and the liver were measured (n=10).
# (§2) After the termination of the administration period for 5 weeks, mRNA expression levels of respective genes shown in the table 10 were determined by using real time RT-PCR method. The real time RT-PCR was carried out according to an operation manual provided by ISOGEN (NIPPON GENE CO., LTD); RNA was extracted from the white adipose tissue and the liver. Next, cDNA was prepared from using 1 μg of RNA by using Reverse Transcription System kit (Promega Corp., USA). Next, suitable primers for the above-mentioned genes were prepared according to the operation manual provided by FastStart universal SYBR (a registered trademark) Greenmaster PCR KIT agent (Roche Diagnostics K. K., Germany).
# (§3) Real time PCR system 7700HT (Applied Biosytems, USA) was used for the determination to carry out the real time PCR by using the cDNAs as templates. Each reaction conditions were set according to the manual of the PCR KIT. Quantitative analysis of the RNA amount was carried out based on comparative Ct method by using glyceraldehyde 3-phosphate dehydrogenase (GAPDH) as the standard reference.
# [4] = test system: gluconeogenesis-related genes PEPCK, G6Pase; assay: Diabetes model mice: mRNA expression in the liver (real time RT-PCR); type: in vivo, mouse; conditions: ob/ob mice, Vehicle = 1.00, nobiletin 200 mg/kg/day, Pioglitazone 30 mg/kg/day, 5 weeks
# Description: as §1, §2, §3
# male C57BL/6 mice = assay: Nobiletin, obesity-induced mice: glucose tolerance test (OGTT); type: in vivo, mouse; conditions: for Blood glucose level (OGTT): HFD
# Description: The sugar tolerance test was carried out as the same as those done in the example 2 (n=9).
# [5] = test system: SREBP1-c, SCD1, FAS, ACC1, DGAT1, GLUT4, Adiponectin, TNF-α, MCP-1, PPARγ genes; assay: Nobiletin, obesity-induced mice: gene expression in the white adipose tissue (mRNA); type: in vivo, mouse
# Description: mRNA expression level was determined by using real time PCR as follows. According to the direction attached with ISOGEN (Nippon Gene Co., Ltd), RNA was extracted from white adipose tissue, liver, and skeletal muscle. Next, cDNA was prepared from 1 μg of RNA by using Reverse Transcription System kit (Promega, USA). Subsequently, according to the direction attached with FastStart universal SYBR (Registered trademark) Greenmaster PCR kit reagent (Roche Diagnostics, Germany), primers suitable for each intended gene in the following experiments were synthesized. Real time PCR system 7700 HT (Applied Biosytems, USA) was used for the measurement, the cDNA was used as templates for the real time PCR. Reaction conditions were followed to those for the PCR kit reagents. Quantitative analysis of RNA level was performed by Comparison Ct method, using glyceraldehyde 3-phosphate dehydrogenase (GAPDH) as the standard.
# The expression of mouse lipid biosynthesis-related gene and other gene shown in the following table 24 after obesity induction by ingesting the high fat diet were determined as mRNA levels to study the effects of nobiletin to these gene expression (n=9). The expression levels of each gene were shown in the ratio when those of the HFD were 1.
# C57BL/6J-ob/ob mice [6] = conditions: nobiletin 200 mg/kg/day, Pioglitazone 30 mg/kg/day, 5 weeks
# Description: Diabetes model mice and the experimental system were as follows. As the diabetes model mice, 7 week age of male C57BL/6J-ob/ob (hereinafter, it was referred to as “ob/ob”) were purchased from Charles River Laboratories Japan Inc., and used as 10 mice/group.
# For the negative control group (from FIGS. 5 to 10, it was shown as Vehicle; hereinafter, it is referred to as “solvent administration group”), 0.3% of CMC aqueous solution was administrated orally for 5 weeks in everyday at the dosage of 0.01 mL/g body weight. For the positive control group (in FIGS. 5 to 10 and hereinafter, it was referred to as “P30 administrated group”), 3 mg of Pioglitazone was suspended in 0.3% CMC aqueous solution so as to be orally administrated at the dosage of 0.01 mL/g body weight for 5 weeks in everyday (dosage: 30 mg/kg body weight/day). […]
# The blood insulin level was measured as described in below. […] As lipids in plasma, concentrations of neutral fat (TG) and total cholesterol (T-CHO) were measured. Plasma insulin level was measured by using rebis insulin mouse (type U) (Shibayagi Co. Ltd.) based on the enzyme-immunoassay.
# [7] = ratio HFD = 1, nobiletin 10 mg/kg/day p.o. 5 weeks
# [8] = ratio HFD = 1, nobiletin 100 mg/kg/day p.o. 5 weeks
smiles,measurement,setting,value
COc1ccc(-c2cc(=O)c3c(OC)c(OC)c(OC)c(OC)c3o2)cc1OC [nobiletin],Blood glucose level (fasting),C57BL/6J-ob/ob mice [1]; 0 week after administration,175.61 ± 11.44 mg/dL
same,Blood glucose level (fasting),C57BL/6J-ob/ob mice [1]; 2 weeks after administration,169.22 ± 13.22 mg/dL
same,Blood glucose level (fasting),C57BL/6J-ob/ob mice [1]; 5 weeks after administration,148.46 ± 7.56 mg/dL
same,Blood glucose level (OGTT),C57BL/6J-ob/ob mice [2]; 0 min after 2 g/kg glucose p.o.,145.26 ± 7.56 mg/dL
same,Blood glucose level (OGTT),C57BL/6J-ob/ob mice [2]; 30 min after 2 g/kg glucose p.o.,304.41 ± 20.23 mg/dL
same,Blood glucose level (OGTT),C57BL/6J-ob/ob mice [2]; 60 min after 2 g/kg glucose p.o.,207.47 ± 11.56 mg/dL
same,Blood glucose level (OGTT),C57BL/6J-ob/ob mice [2]; 120 min after 2 g/kg glucose p.o.,192.57 ± 9.01 mg/dL
same,"Gene expression level (ratio), [W]Adiponectin",[3],1.54 ± 0.04
same,"Gene expression level (ratio), [W]GLUT4",[3],1.88 ± 0.12
same,"Gene expression level (ratio), [W]IL-6",[3],0.55 ± 0.03
same,"Gene expression level (ratio), [W]LPL",[3],1.50 ± 0.18
same,"Gene expression level (ratio), [W]MCP-1",[3],0.64 ± 0.02
same,"Gene expression level (ratio), [W]PPARγ",[3],1.79 ± 0.02
same,"Gene expression level (ratio), [W]Perilipin",[3],1.61 ± 0.17
same,"Gene expression level (ratio), [W]TNF-α",[3],0.80 ± 0.048
same,"Gene expression level (ratio), [W]aP2",[3],1.10 ± 0.01
same,"Gene expression level (ratio), [L]G6Pase",[4],0.29 ± 0.01
same,"Gene expression level (ratio), [L]PEPCK",[4],0.34 ± 0.03
same,"area under the curve (AUC) of blood glucose in OGTT, compared with HFD administration group","male C57BL/6 mice; 0 to 120 minutes, nobiletin 10 mg/kg/day p.o.",no significant difference
same,"area under the curve (AUC) of blood glucose in OGTT, compared with HFD group","male C57BL/6 mice; 0 to 120 minutes, nobiletin 100 mg/kg/day p.o., p<0.05",significant difference
same,Blood glucose level (OGTT),"male C57BL/6 mice; 0 minute after glucose, nobiletin 10 mg/kg/day p.o.",157.47 ± 10.54 mg/dL
same,Blood glucose level (OGTT),"male C57BL/6 mice; 0 minute after glucose, nobiletin 100 mg/kg/day p.o.",128.49 ± 5.59 mg/dL
same,Blood glucose level (OGTT),"male C57BL/6 mice; 15 minutes after glucose, nobiletin 10 mg/kg/day p.o.",384.94 ± 17.66 mg/dL
same,Blood glucose level (OGTT),"male C57BL/6 mice; 15 minutes after glucose, nobiletin 100 mg/kg/day p.o.",340.91 ± 16.88 mg/dL
same,Blood glucose level (OGTT),"male C57BL/6 mice; 30 minutes after glucose, nobiletin 10 mg/kg/day p.o.",342.5 ± 27.08 mg/dL
same,Blood glucose level (OGTT),"male C57BL/6 mice; 30 minutes after glucose, nobiletin 100 mg/kg/day p.o.",334.84 ± 16.98 mg/dL
same,Blood glucose level (OGTT),"male C57BL/6 mice; 60 minutes after glucose, nobiletin 10 mg/kg/day p.o.",271.76 ± 31.64 mg/dL
same,Blood glucose level (OGTT),"male C57BL/6 mice; 60 minutes after glucose, nobiletin 100 mg/kg/day p.o.",267.27 ± 18.22 mg/dL
same,Blood glucose level (OGTT),"male C57BL/6 mice; 120 minutes after glucose, nobiletin 10 mg/kg/day p.o.",217.1 ± 35.92 mg/dL
same,Blood glucose level (OGTT),"male C57BL/6 mice; 120 minutes after glucose, nobiletin 100 mg/kg/day p.o.",178.45 ± 15.37 mg/dL
same,"Expression level, ACC1",[5]; [7],2.06 ± 0.05
same,"Expression level, Adiponectin",[5]; [7],1.97 ± 0.09
same,"Expression level, DGAT1",[5]; [7],2.17 ± 0.19
same,"Expression level, FAS",[5]; [7],2.78 ± 0.06
same,"Expression level, GLUT4",[5]; [7],1.34 ± 0.09
same,"Expression level, MCP-1",[5]; [7],0.44 ± 0.02
same,"Expression level, PPARγ",[5]; [7],1.61 ± 0.11
same,"Expression level, SCD1",[5]; [7],2.30 ± 0.06
same,"Expression level, SREBP1-c",[5]; [7],2.15 ± 0.21
same,"Expression level, TNF-α",[5]; [7],1.06 ± 0.12
same,"Expression level, ACC1",[5]; [8],1.69 ± 0.07
same,"Expression level, Adiponectin",[5]; [8],2.02 ± 0.08
same,"Expression level, DGAT1",[5]; [8],1.80 ± 0.14
same,"Expression level, FAS",[5]; [8],2.50 ± 0.03
same,"Expression level, GLUT4",[5]; [8],1.35 ± 0.07
same,"Expression level, MCP-1",[5]; [8],0.35 ± 0.01
same,"Expression level, PPARγ",[5]; [8],1.36 ± 0.05
same,"Expression level, SCD1",[5]; [8],2.95 ± 0.17
same,"Expression level, SREBP1-c",[5]; [8],1.53 ± 0.20
same,"Expression level, TNF-α",[5]; [8],0.58 ± 0.14
same,"Adiponectin level in blood, times higher than solvent administration group",C57BL/6J-ob/ob mice [6],not so high
